One assay has as its system tubulin protein. The format is biochemical. As to conditions: tubulin 3mg/mL, 37° C, 340 nm, 1h; read-out: Tubulin polymerisation inhibition IC50. On the procedure:
The tubulin polymerization experiment was performed using 'assay kit'(Cytoskeleton USA) following manufacturer's protocol based on the procedure described by of Shelanski et al, (1973) and Lee et al. (1977). Briefly, tubulin protein (3mg/mL) in tubulin polymerization buffer (80 mM PIPES, pH 6.9, 2 mM MgCl2, 0.5 mM EGTA, 1 mM GTP and 15% glycerol) was placed in prewarmed 96-well microtiter plates at 37° C in the presence of test compounds with variable concentrations. All samples were mixed well and polymerization was monitored kinetically at 340 nm every min for 1h using a Spectramax plate reader. The IC50 value was determined from dose-dependent analysis and is defined as the concentration that inhibits the rate of polymerization by 50%. Podophyllotoxin was used as standard tubulin polymerisation inhibitor as positive control.

In assay [1] the test system is various human cancer cell lines. Kind of assay: Cytotoxicity against various human cancer cell lines (summary statement). The class given is cell-based. The note with it: read-out: cytotoxicity against various human cancer cell lines, IC50. The method, then:
The benzyl compounds were evaluated by Sulforhodamine B Assay as per reported method [Skehan etal., J. Natl. Cancer Inst.1990, 82, 1107]. The human cancer cell lines procured from National Cancer Institute, Frederick, U. S. A. were used in present study. Cells were grown in tissue culture flasks in complete growth medium (RPMI-1640 medium with 2 mM glutamine, pH 7.4 supplemented with 10% fetal bovine serum, 100 µg/ml streptomycin and 100 units/ml penicillin) in a carbon dioxide incubator (37°C, 5% CO2, 90% RH). The cells at subconfluent stage were harvested from the flask by treatment with trypsin (0.05% in PBS (pH 7.4) containing 0.02% EDTA). Cells with viability of more than 98%, as determined by trypan blue exclusion, were used for determination of cytotoxicity. The cell suspension required concentration of cells was prepared in complete growth medium. Stock solution of 2x10^-2 M of compounds were prepared in DMSO and further dilution was carried out complete growth medium containing 50µg/ml of gentamycin to obtained working test solution of required concentration. In vitro cytotoxicity against various human cancer cell lines was determined using 96-well cell culture plates. […] Cell growth was measured by staining with sulforhodamine B dye. […] The optical density (OD) was recorded on ELISA reader at 540nm. […]

With `COc1cc(C2c3c(cc(OC)c(OC)c3OC)C(=O)C2Cc2ccc3c(c2)OCO3)cc(OC)c1OC` (centres unmarked) [Compound 2, 2-(3",4"-methylenedioxybenzyl)-3-(3',4',5'-trimethoxyphenyl)-4,5,6-trimethoxy-indan-1-one], the values for the half-inhibitory concentration (IC50) (in the assay with tubulin protein; in assay [1]) were 2.08 µM and 1 to 3 µM, respectively.

The record behind these values is patent EP3322687B1, “2-BENZYL-INDANONE COMPOUNDS AS ANTICANCER AGENT AND A PROCESS FOR PREPARATION THEREOF” (Council of Scientific and Industrial Research, priority 2015, dated 2017).
